Biological target: T1, VDRtt (Rattus norvegicus, UniProt P13053)
T1 construct: from tissue; host or cells: rat heart ventricle, crude myocardial membranes (7,700-40,000 x g pellet)
T1 sequence (P13053 1-423): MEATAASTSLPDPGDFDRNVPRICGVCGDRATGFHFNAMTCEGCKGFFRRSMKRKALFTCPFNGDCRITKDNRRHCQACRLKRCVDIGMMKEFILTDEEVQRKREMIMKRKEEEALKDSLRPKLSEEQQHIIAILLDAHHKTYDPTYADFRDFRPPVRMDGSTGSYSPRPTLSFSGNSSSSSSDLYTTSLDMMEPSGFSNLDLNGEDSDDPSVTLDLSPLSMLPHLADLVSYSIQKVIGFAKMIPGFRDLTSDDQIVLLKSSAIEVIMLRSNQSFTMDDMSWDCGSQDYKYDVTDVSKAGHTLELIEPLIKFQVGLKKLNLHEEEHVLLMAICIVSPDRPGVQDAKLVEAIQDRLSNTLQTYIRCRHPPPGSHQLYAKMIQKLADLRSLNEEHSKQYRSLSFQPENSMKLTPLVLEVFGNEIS
Experiment: Competition with [3H] 1α,25(OH)2 vitamin D3 for binding to rat heart membrane preparations
Conditions: radioligand binding experiments, FIGS. 6 and 7
Method: Crude myocardial membranes were prepared as follows: whole hearts were removed from three month old female Sprague-Dawley rats and were cannulated and perfused two times with 10 mls ice-cold DPBS then once with 3 mls of ice-cold TKED lysis buffer (50 mM Tris-HCl, 150 mM KCl, 1.5 mM EDTA, 10 mM dithiothreitol, pH7.4 and a 1/100 dilution of Sigma Protease Inhibitor Cocktail [P8340]). Ventricles were cut away from atria and connective tissue and then minced, transferred to a 13 ml round-bottom Sarstedt tube and washed two times in 10 mls TKED lysis buffer by spinning briefly at full speed in a clinical centrifuge then aspirating. Tissue was kept ice-cold as much as possible. Washed minced ventricle tissue was then homogenized on ice with a Tekmar Tissuemizer in 5 volumes (˜5 mls) of TKED lysis buffer using 10 strokes at setting 30 followed by 5 strokes at setting 50. The resulting homogenate was transferred to a 15 ml Corex tube and centrifuged in a Beckman JA-20 rotor at 8,000 rpm (7,700 g) for 15 minutes at 4° C. The supernatant was transferred to a new 15 ml Corex tube and centrifuged in a Beckman JA-20 rotor at 18,200 rpm (40,000 g) for 25 minutes at 4° C. The resulting membrane pellet was washed once in a few mls TKED lysis buffer, resuspended in 0.5 mls TKED lysis buffer then homogenized with 3 strokes of a 2 ml Wheaton Potter-Elvejhem tissue grinder.
Ligand binding assays to determine the ability of competitors or test compounds to compete with [^3H] […] 1α,25(OH)2 vitamin D3 (specific activity 176 Ci/mmol) and various concentrations of competitor or test compound. Nonspecific binding is determined in the presence of cold 1α,25(OH)2 Vitamin D3 (2 μM) for vehicle and each competitor or test compound. Assays are performed at room temperature for 60 minutes. Reactants are then filtered over glass fiber filters (Whatman GF-C) and washed three times with 5 mls ice-cold TKEDN binding buffer. […] Tritiated [^3H] 1α,25(OH)2 vitamin D3 can be obtained from G.E. Healthcare and dried using a nitrogen evaporator and resuspended in ethanol. 1α,25(OH)2 Vitamin D3 and competitors or test compounds can be obtained from Sigma-Aldrich and diluted in ethanol. Vitamin D5 was obtained from the University of Illinois and was diluted in ethanol.

Structure (SMILES)	binding of vitamin D analogs to VDRtt
C=C1/C(=C\C=C2/CCC[C@]3(C)[C@@H]([C@H](C)CCC(O)C(C)(C)O)CC[C@@H]23)C[C@@H](O)CC1O (stereo partly shown) [1,24,25 trihydroxyvitamin D3]	binds with various affinities
C=C1CCC(O)C/C1=C\C=C1\CCCC2(C)C1CCC2C(C)CCC(O)C(C)(C)O (stereo not shown) [24,25 dihydroxyvitamin D3]	binds with various affinities
C=C1CC[C@H](O)C/C1=C/C=C1\CCC[C@]2(C)[C@@H]([C@H](C)CCCC(C)(C)O)CC[C@@H]12 [25-hydroxyvitamin D3]	binds with various affinities
C=C1CC[C@H](O)C/C1=C/C=C1\CCC[C@]2(C)[C@@H]([C@H](C)CC[C@@H](CC)C(C)C)CC[C@@H]12 [Vitamin D5]	binds with various affinities

Reference: US20100190187A1, “Screening Assays for Antagonists and Analyses of Cardiac Hypertrophy” (The Regents of the University of Michigan Office of …, priority 2006, published 2010)
